Test results from US9855346B2, “Fluorescent dye compositions and uses thereof” (Chang Gung University of Science and Technology, priority 2014, dated 2018).

Key:
[1] = NMR line width of half-amplitude (mobility of CP); type: physicochemical; conditions: line width at half amplitude of methylene protons, 1H-NMR
Experimental: The mobility of CP in the compositions was evaluated by NMR, by measuring the line widths of half-amplitude (Hz) of methylene protons. Compositions were diluted with deuterium oxide by 3-fold. Neat CP was diluted with chloroform-d. The compositions were loaded into NMR tubes and their ^1H-NMR spectra were examined by Avance 400 spectrometer (Bruker, Bremen, Germany).
The mobility of solid fatty ester in lipid cores of the CP-containing compositions was examined by proton NMR. The line width of signals for neat CP was 3.50 Hz.

[2] = In vivo real-time optical imaging after IV injection; design: species or system Sprague-Dawley rats; conditions: rats
Experimental: Male Sprague-Dawley rats aged 8˜10 weeks was supplied by Lasco (Taipei, Taiwan). Animal experimental protocol was approved by the Institutional Animal Care and Use Committee of Chang Gung University, Taiwan. The rats had free access to water and food at all time. The rats were anesthetized and injected with the compositions of the present invention or the control solution (dimethyl sulfoxide:Tween 80:normal saline=4:2:4) at a DiR dose of 40 μg/kg via femoral vein. In vivo real-time imaging was acquired using Pearl® Impulse at NIR wavelength. Rats were sacrificed 4 h post-injection. The following organs were collected and washed with normal saline: skin, muscle, heart, lungs, liver, spleen, and kidneys. The fluorescence intensity in these organs was assessed Ex Vivo by Pearl® Impulse. In Vivo optical images were taken after ICG, control DiR solution (with 40% v/w dimethyl sulfoxide) and S1-S4 compositions were administered into the rats via intravenous (IV) injection.

| Line width (Hz) [1] [Hz] | time post-injection at which fluorescence is detected in the liver (liver clearance) [2] [min] | imaging time ([2]; fluorescence activity in large and small vessels) | Structure (SMILES) |
| --- | --- | --- | --- |
| 3.50 | – | – | CCCCCCCCCCCCCCCCOC(=O)CCCCCCCCCCCCCCC [CP, Cetyl palmitate] |
| – | ≤ 5 | about 5 min | CC1(C)C(/C=C/C=C/C=C/C=C2\N(CCCCS(=O)(=O)O)c3ccc4ccccc4c3C2(C)C)=[N+](CCCCS(=O)(=O)[O-])c2ccc3ccccc3c21 [ICG, Indocyanine green] |
